# Experimental data published in patent US9783578B2, “Immunosuppression modulating compounds” (AURIGENE DISCOVERY TECHNOLOGIES LIMITED, priority 2010, dated 2017).
# Like-named read-outs stand apart in the source and are kept apart here. Where a SMILES comes first, the peptide text is derived from it. Bridges are numbered along the chain shown (N, C = ends). Roman numbers before positions name the chains, in order.
# Key:
# 4T1 cells = conditions: 3 mg/kg s.c.; during dosing period
# Procedure: On day 0, 4T1 cells grown in RPMI 1640 containing 10% FBS at 70 to 75% confluency were harvested and 0.1×10^6 cells per animal were injected along with matrigel orthotopically to mammary fat pad. […] Vehicle control group of mice received only saline. Each group consisted of ten animals. Body weight and clinical signs were recorded daily. Tumour volume was measured by slide callipers.
# Organisms (not named) = assay: organism not typed
# Procedure: Required quantity of the compound was weighed and dissolved in water/dimethyl sulphoxide/suitable solvent to yield 1 mg/ml stock solution. The stock solution was diluted in MHB/CAMHB to yield 8 μg/ml or 64 μg/ml or 512 μg/ml solution as per requirement. Serial two fold dilutions of the compound was prepared using MHB/CAMHB in 96 well microtitre trays using a multichannel pipette. Organisms were grown in MHB/CAMHB for 4-5 hrs at 35±2° C., 110±10 rpm. Optical density (OD) of the cultures is adjusted to 625 nm which corresponds to 0.5 Mc Farland standard (1-2×10^8 cfu/ml) and further diluted to achieve a final inoculum of […]×10^4 cfu/well. Broth, compound and organism controls were set up. Microdilution trays were incubated at 35±2° C. for 16-20 hours in an ambient air incubator. After the incubation period, growth of organism in the wells was detected by unaided eye facilitated by a viewing device.
# B16F10 cells = conditions: 5 mg/kg s.c.; during the period of dosing
# Procedure: C57/Black6 female mice (Aurigene, Bangalore, India) aged 6 to 8 weeks were used for the experiment. Animals were acclimatized for a week in the experimental room before conducting the experiment.
# On day 0, B16F10 cells grown in DMEM containing 10% FBS at 70 to 75% confluency were harvested and 1×10^6 cells per animal were injected to mice subcutaneously on the right flank region. […] Vehicle control group of mice received only saline. Each group consisted of ten animals. Body weight and clinical signs were recorded daily.
# [1] = system: mouse splenocytes inhibited by MDA-MB-231 tumour cells expressing PD-L1; assay: Mouse splenocyte proliferation rescue, CFSE method; assay type: cell-based; conditions: screened at 100 nm concentration and compared with 100 nm Comp 8
# Procedure: Mouse splenocytes harvested from 6-8 weeks old C57 BL6 mice.; RPMI 1640 (GIBCO, Cat #11875); DMEM with high glucose (GIBCO, Cat #D6429); Fetal Bovine Serum [Hyclone, Cat #SH30071.03]; Pencilin (10000 unit/ml)-Streptomycin(10,000 μg/ml) Liquid (GIBCO, Cat #15140-122); MEM Sodium Pyruvate solution 100 mM (100×), Liquid (GIBCO, Cat #11360); Nonessential amino acid (GIBCO, Cat #11140); L-Glutamine (GIBCO, Cat #25030); Anti-CD3 antibody (eBiosciences—16-0032); Anti-CD28 antibody (eBiosciences—16-0281); ACK lysis buffer (1 mL) (GIBCO, Cat #-A10492); Histopaque (density—1.083 gm/ml) (SIGMA 10831); Trypan blue solution (SIGMA-T8154); Hemacytometer (Bright line-SIGMA Z359629); FACS Buffer (PBS/0.1% BSA): Phosphate Buffered Saline (PBS) pH 7.2 (HiMedia TS1006) with 0.1% Bovine Serum Albumin (BSA) (SIGMA A7050) and sodium azide (SIGMA 08591); 5 mM stock solution of CFSE: CFSE stock solution was prepared by diluting lyophilized CFSE with 180 μL of Di methyl Sulfoxide (DMSO C2H6SO, SIGMA-D-5879) and aliquoted in to tubes for further use. Working concentrations were titrated from 10 μM to 1 μM. (eBioscience—650850-85); 96-well format ELISA plates (Corning CLS3390); BD FACS caliber (E6016).
# Splenocytes harvested in a 50 ml falcon tube by mashing spleen in a 40 μm cell strainer were further treated with 1 ml ACK lysis buffer for 5 mins at RT. After washing with 9 ml of RPMI complete media, cells re-suspended in 3 ml of 1×PBS in a 15 ml tube. 3 ml of histopaque was added very carefully to the bottom of the tube without disturbing overlaying splenocyte suspension. Spin the tube at 800×g for 20 mins at RT. Opaque layer of lymphocytes is collected carefully without disturbing/mixing any of the layers. Cells washed twice with cold 1×PBS followed by total cell counting using trypan blue exclusion method and used further for cell based assays.
# Tumour cells (MDMBA231) are cultured and maintained in high glucose complete DMEM media. 1×10^5 tumour cells were plated in 96 well plates along with required conc. of PD1 derived peptide and allowed to adhere at 37° C. for 4 hrs. 1×10^6 cells/ml of harvested splenocytes are treated with 5 μM of CFSE in pre warmed 1×PBS/0.1% BSA solution for 10 mins at 37° C. Excess CFSE was quenched using 5 volumes of ice-cold culture media to the cells and incubated on ice for 5 mins. CFSE labeled splenocytes were further given three washes with ice cold complete DMEM media. CFSE labeled 1×10^5 splenocytes added to above wells containing tumours cells and test compounds. Splenocytes were stimulated with anti-CD3 and anti-CD28 antibody (1 μg/ml each) and the co-culture was further incubated for 72 hrs at 37° C. with 5% CO2. Cells were harvested and washed thrice with ice cold FACS buffer and % proliferation was analyzed using a FACS caliber with 488 nm excitation and 521 nm emission filters. Each experimental condition was carried out in triplicates and each experiment at least carried out three times. Splenocyte proliferation was analyzed using cell quest FACS program and fold induction was calculated by normalizing individual values to percent background proliferation. Fold induction=Percent splenocyte proliferation/percent background proliferation Stimulated splenocytes: Splenocytes+anti-CD3/CD28 stimulation Background proliferation: Splenocytes+anti-CD3/CD28+Tumour Percent Proliferation rescue={(compound percent proliferation−Background percent proliferation)/(Stimulated percent proliferation−Background percent proliferation)}*100.
# in vitro = assay: in vitro
# Procedure: Briefly, overnight fasted rats were sacrificed by cervical dislocation; kidneys were removed, washed with chilled saline and decapsulated. The renal tissue was sliced and a 5% homogenate was made in buffer containing 2 mM Tris-HCl, 50 mM mannitol pH 7.1 using 10 strokes in a Porter-Elvelhemhomogeniser. The homogenate was centrifuged at 250×g for 5 min and the pellet was re-homogenized (four strokes) in the same buffer. Both the homogenate preparations were pooled (an aliquot of sample was taken for enzyme assays), allowed to remain at 4° C. for 15 min and filtered using a nylon mesh cloth. To this, a 50% PEG solution in water was added to make a final concentration of 10% PEG, stirred for 15 min continuously at 4° C. and centrifuged at 7500×g for 10 min. The pellet was discarded and the supernatant was spun at 12,000×g for 10 min. This pellet was discarded and the supernatant was centrifuged at 27,000×g for 40 min. To the pellet, 15 ml suspension buffer containing 10 mM Tris-HCl and 300 mM mannitol, pH 7.1 was added, centrifuged at 27,000×g for 40 min. The pellet was washed twice with the same suspension buffer and finally suspended 1 ml of the same buffer using a syringe fitted with a 26-gauge needle.
# 1. Microsomal protein working solution was prepared as mentioned above (0.55 mg/ml) in 50 mM potassium phosphate buffer (pH 7.4)
# 2. Test compound (compound 69) working stock solutions at concentration of 4 μM was prepared in 50 mM potassium phosphate buffer (pH 7.4)
# 3. 125 μL of test compound (compound 69) from step 2 diluted with 100 μL of buffer and 275 μl of microsomal protein solution from step 2 was pre-incubated separately for 10 mins at 37° C.
# 4. Both the test solution from step 3 was mixed together and the reaction mixture was aliquoted at various time intervals and processed by SPE method.
# Kidney brush border stability of the compounds was calculated as the amount of substrate metabolized by the incubation with kidney brush border microsomes. Initial amount of substrate (concentration at T0) was measured and KBBM stability was assessed by the disappearance of compound at various time points based on the change in analyte to internal standard peak height ratio using LCMS/MS (API 4000, AB Sciex). Results are expressed as mean±SD of test compound remaining at any given time point (Table VI).
# [2] = rat, kidney brush border membrane (KBBM) preparation, pH 7.4
compound,measurement,setting,value
CC[C@H](C)[C@H](NC(=O)[C@H](CCC(N)=O)NC(=O)[C@H](C)NC(=O)[C@H](CCCCN)NC(=O)[C@@H]1CCCN1C(=O)[C@H](C)NC(=O)[C@H](CC(C)C)NC(=O)[C@H](CCC(N)=O)NC(=O)[C@@H](NC(=O)[C@@H](NC(=O)[C@H](CCCNC(=N)N)NC(=O)[C@H](Cc1ccccc1)NC(=O)C(CCCCNC(=O)[C@H](Cc1ccccc1)NC(=O)[C@H](CO)NC(=O)[C@H](CCC(=O)O)NC(=O)[C@H](CO)NC(=O)[C@@H](NC(=O)[C@H](CC(N)=O)NC(=O)[C@@H](N)CO)[C@@H](C)O)NC(=O)[C@H](Cc1ccccc1)NC(=O)[C@H](CO)NC(=O)[C@H](CCC(=O)O)NC(=O)[C@H](CO)NC(=O)[C@@H](NC(=O)[C@H](CC(N)=O)NC(=O)[C@@H](N)CO)[C@@H](C)O)C(C)C)[C@@H](C)O)C(=O)N[C@@H](CCCCN)C(=O)N[C@@H](CCC(=O)O)C(N)=O (stereo partly shown) [Compound 8],Body weight,4T1 cells,no body weight reduction
same,MIC,"Organisms (not named); broth microdilution, 16-20 hours at 35±2° C.",> 32 µg/mL
same,Body weight,B16F10 cells,no body weight reduction
same,Clinical signs,B16F10 cells,no clinical signs
CC[C@H](C)[C@H](NC(=O)[C@H](CCCCN)NC(=O)[C@H](C)NC(=O)[C@H](CCCCN)NC(=O)[C@@H]1CCCN1C(=O)[C@H](Cc1c[nH]cn1)NC(=O)[C@H](CC(C)C)NC(=O)[C@H](CCC(N)=O)NC(=O)[C@@H](NC(=O)[C@@H](NC(=O)[C@H](CCC(N)=O)NC(=O)[C@H](Cc1ccccc1)NC(=O)[C@H](CCCCNC(=O)[C@H](CC(C)C)NC(=O)[C@H](CC(=O)O)NC(=O)[C@H](CCC(=O)O)NC(=O)[C@H](CO)NC(=O)[C@H](Cc1c[nH]c2ccccc12)NC(=O)[C@H](CC(N)=O)NC(=O)[C@@H](N)CO)NC(=O)[C@H](CC(C)C)NC(=O)[C@H](CC(=O)O)NC(=O)[C@H](CCC(=O)O)NC(=O)[C@H](CO)NC(=O)[C@H](Cc1c[nH]c2ccccc12)NC(=O)[C@H](CC(N)=O)NC(=O)[C@@H](N)CO)[C@@H](C)CC)[C@@H](C)CC)C(=O)N[C@@H](CCC(=O)O)C(=O)N[C@@H](CCC(=O)O)C(N)=O [Compound 69] (I: H-SNWSEDLKFQIIQLHPKAKIEE-NH2 / II: H-SNWSEDL; amide I:8-II:C),Percent rescue for various compounds in mouse splenocyte proliferation CFSE based assay,[1],48%
same,RKBBM % compound remaining,in vitro; 0 min,100%
same,"remaining at 10 min, 1 μM",in vitro; [2],100%
same,"remaining at 0.5 h, 1 μM",in vitro; [2],98%
same,"remaining at 1 h, 1 μM",in vitro; [2],81%
O=C(O)c1cn(C2CC2)c2cc(N3CCNCC3)c(F)cc2c1=O [ciprofloxacin],MIC,Organisms (not named),0.007 µg/mL
C[C@H]1COc2c(N3CCN(C)CC3)c(F)cc3c(=O)c(C(=O)O)cn1c23 [levofloxacin],MIC,Organisms (not named),0.015 µg/mL
Biotin-Ahx-EKIQAKPAYWNLVK(KDTQNS)DTQNS-NH2 [Compound 61],Percent rescue for various compounds in mouse splenocyte proliferation CFSE based assay,[1],67%
Biotin-Ahx-sntsesfk(sntsesf)frvtqlapkaqike-NH2 [Compound 60],Percent rescue for various compounds in mouse splenocyte proliferation CFSE based assay,[1],14.9%
CGAISLAPKAQIKE-NH2 [Compound 5],Percent rescue for various compounds in mouse splenocyte proliferation CFSE based assay,[1],68%
EDRSQPGQDCR-NH2 [Compound 4],Percent rescue for various compounds in mouse splenocyte proliferation CFSE based assay,[1],74.7%
FRVTQLAPKAQIKE-NH2 [Compound 43],Percent rescue for various compounds in mouse splenocyte proliferation CFSE based assay,[1],66%
SNTSESF-NH2 [Compound 1],Percent rescue for various compounds in mouse splenocyte proliferation CFSE based assay,[1],96.5%
SNTSESFFRVTQLAPKAQIKE-NH2 [Compound 26],Percent rescue for various compounds in mouse splenocyte proliferation CFSE based assay,[1],86.6%
sntsesfk(sntsesf)frvtqlapkaqike-NH2 [Compound 13],"Percent rescue in mouse splenocyte proliferation CFSE based assay (cell printed with nM, control peptide)",[1]; control peptide,0-12 nM-
